Measured values published in patent US8633251B2, “Derivatives of aminoalkanols, method of obtaining of aminoalkanols and their use” (Uniwersytet Jagiellonski, priority 2008, dated 2014).
Read-outs that look alike come from different tables or passages of the source.

Legend:
[1] = test system: maximal electroshock seizures; assay: Maximum Electroshock Seizure (MES) test, mice; assay type: in vivo
How it was run: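 Mice received compound in methylcellulose i.p. or p.o. at 30, 100 and 300 mg/kg, with some tests at 10 and 3 mg/kg. At 0.5 or 4 h, after tetracaine eye-drops, current was delivered through corneal electrodes (60 Hz, 0.2 s, 50 mA). Groups were one mouse at 30 and 300 mg/kg and three at 100 mg/kg.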

[2] = test system: maximal electroshock seizures; assay: Maximum Electroshock Seizure (MES) test, rats; assay type: in vivo
Procedure: In order to define anticonvulsant activity, screening tests were performed, using animal models of seizures. […] The tests were based on administration of a compound to an animal and after certain time inducing state similar to epilepsy attack in human. Each substance (after dissolving in methylcellulose) was normally tested in doses 30, 100, and 300 mg/kg body weight (b.w.) (mice) or in 30 and 50 mg/kg b.w. (rats) in two possible routes of administration: intraperitoneal (i.p.) or oral (p.o.). […] […] (mice) the tests were also performed in doses 10 and 3 mg/kg b.w.
Maximum Electroshock Seizure (MES) test is an electric test, verifying activity towards generalized tonic-clonic seizures (grand mal epilepsy). […] Its procedure consists in administration to an animal a mentioned dose, […] (after anesthetic eye-drops: 0.5% tetracaine hydrochloride in 0.9% NaCl) and turning on electric current (60 Hz, 0.2 s, 50 mA (mice) or 150 mA (rats)). […]

[3] = test system: neurotoxicity (rotarod); assay: Neurotoxicity test (TOX), rotarod, mice; assay type: in vivo; settings: mice
[4] = test system: 6 Hz focal seizures (limbic system); assay: 6 Hz test, mice; assay type: in vivo; settings: for ED50: Mus musculus, ip, 0.25 h
Procedure: (§1) For some compounds, a test for proconvulsant activity was performed (TTE test), as well as a test on activity in focal seizures (related with limbic system, 6 Hz test, hippocampal kindling). […] A test on inhibiting seizures induced by sound (Frings mice) was performed for compounds 12 and 26-28. Electrophysiology tests also have been performed, for seizures induced by bicuculline, picrotoxin, and NMDA. Prevention of (pilocarpine induced) status epilepticus has been noticed.

[5] = test system: seizures induced by sound; assay: Sound-induced seizures, Frings mice; assay type: in vivo
Procedure: as §1

[6] = test system: hippocampal kindling seizures; assay: Electric hippocampal kindling, rats; assay type: in vivo
Procedure: as §1

[7] = test system: seizures induced by bicuculline; assay: Bicuculline (BIC) induced seizures; assay type: in vivo
Procedure: as §1

[8] = test system: seizures induced by picrotoxin; assay: Picrotoxin (PIC) induced seizures; assay type: in vivo
Procedure: as §1

[9] = test system: metrazol seizure threshold; assay: Metrazol test, time to first twitch and first clonus; assay type: in vivo; settings: for average time until the first twitch: control 30.07 (±1.23) min.; for average time from administration until the first clonus: control 34.38 (±0.94) min.
Procedure: In the MES test it inhibits seizures by inhibiting post-synaptic excitatory current. […] In the metrazol test average time until the first twitch was 27.3±0.2 min. for the dose 5 mg/kg b.w. and 27.6 (±0.3) min. for the dose 30 mg/kg b.w., comparing to the control 30.07 (±1.23) min. Average time from administration until the first clonus was 33.6 (±1.23) min. for the dose 5 mg/kg b.w. and 32.70 (±1.28) for the dose 30 mg/kg b.w., comparing to the control 34.38 (±0.94) min.

[10] = test system: formalin-induced pain (acute/neuropathic and inflammatory phase); assay: Formalin test, mice; assay type: in vivo
Procedure: The test was performed with use of formaldehyde as a substance causing pain (neuropathic and inflammatory afterwards) in mice, which were injected formalin into a hind limb.
During the first 10 min. after administration the mouse is licking the hind limb (acute phase), afterwards there is a short break in behavior change, and then the mouse licks its limb again for another 20-30 min. (inflammatory phase) (FIG. 3 for 12 and FIG. 4 for 26). The acute phase represents direct affection on the peripheral nerve and the inflammatory phase is related with secretion of inflammation mediators from the damaged tissue and nerves. The described model tests effectiveness of a substance to inhibit acute and chronic excessive neuronal discharges in response to peripheral nerves activation.

[11] = test system: voltage-gated sodium channels; assay: Electrophysiology, voltage-gated sodium channels; assay type: biochemical
[12] = test system: LTG-resistant amygdala seizures; assay: Lamotrigine-resistant amygdala kindling, rats; assay type: in vivo; settings: t=0.25 h, i.p.
[13] = test system: pilocarpine induced status epilepticus; assay: Status epilepticus prevention (pilocarpine), rats; assay type: in vivo, Sprague Dawley albino rat; settings: i.p.; for Average weight loss ± S.E.M.: body weight loss 24 h after administration, 25 (27) or 45 (28) mg/kg b.w.; for protection in status epilepticus prevention: 25 (27) and 45 (28) mg/kg b.w.; for Protection: rats protected/tested, time 0 h, dose 25 (27) or 45 (28) mg/kg b.w.
Procedure: Status epilepticus prevention—an animal (Sprague Dawley albino rat male) is given a dose of tested substance. After 0, 0.25, 0.5, 1, 2, and 4 h pilocarpine is administered. The seizures induced are described by Racine's score. Compounds 27 and 28 were administered i.p. in doses 25 and 45 mg/kg b.w. respectively. […] Average body weight loss is measured 24 h after administration.

[14] = dose 100 mg/kg b.w., time 0.5 h
[15] = dose 300 mg/kg b.w., time 0.5 h
[16] = mice, dose 30 mg/kg b.w., time 0.5 h
[17] = mice, dose 100 mg/kg b.w., time 0.5 h

In the case of `Cc1cccc(C)c1OCCN[C@H](C)CO` [Compound 12, R-(−)-2N-[(2,6-dimethylphenoxy)ethyl]amino-1-propanol], the responders at 10 mg/kg ([1]; Mus musculus, mice, dose 10 mg/kg b.w., time 0.5 h, read-out: MES, No. of protected animals/No. of used animals (converted)) is reported as 25%, the responders at 30 mg/kg ([1]; Mus musculus, mice, dose 30 mg/kg b.w., time 0.5 h, read-out: MES, No. of protected animals/No. of used animals) is reported as 100% and the responders at 100 mg/kg ([1]; Mus musculus, mice, dose 100 mg/kg b.w., time 0.5 h, read-out: MES, No. of protected animals/No. of used animals (converted)) is reported as 100%. The responders at 100 mg/kg ([1]; Mus musculus, mice, dose 100 mg/kg b.w., time 4 h, read-out: MES, No. of protected animals/No. of used animals (converted)) was 50%, the “ED50 (MES, female mice, i.p., 0.25 h)” value ([1]; female mice, i.p., 0.25 h) was 22.28 mg/kg b.w and the “activity in MES, mice” value ([1]; mice) was “active”. For the same compound, the “ED50 (MES, mice, i.p., 0.25 h)” value ([1]; mice, i.p., 0.25 h) was 5.34 mg/kg b.w, the “ED50 (MES, mice, p.o., 0.25 h)” value ([1]; mice, p.o., 0.25 h) was 51.19 mg/kg b.w and the “activity in MES, rats” value [2] was “active”. For the same compound, the “ED50 (MES, rats, i.p., 0.25 h)” value [2] was 7.43 mg/kg b.w, the “ED50 (MES, rats, p.o., 0.25 h)” value [2] was 28.60 mg/kg b.w and the “TOX, No. of animals exhibiting motor impairment/no. of used animals” value [3, 14] was 8/8. For the same compound, the “TOX, No. of animals exhibiting motor impairment/no. of used animals” value ([3]; dose 100 mg/kg b.w., time 4 h, 100 mg/kg) was 1/3, the “TOX, No. of animals exhibiting motor impairment/no. of used animals” value [3, 15] was 4/4 and the ED50 ([4]; read-out: ED50 (6 Hz, female mice, i.p., 22 mA, 0.25 h)) was 7.06 mg/kg. For the same compound, the ED50 ([4]; read-out: ED50 (6 Hz, mice, i.p., 22 mA, 0.25 h)) was 43.8 mg/kg, the “ED50 (6 Hz, female mice, i.p., 44 mA, 0.25 h)” value ([4]; female mice, i.p., 44 mA) was 41.3 mg/kg b.w and the “ED50 (6 Hz, mice, i.p., 44 mA, 0.25 h)” value ([4]; mice, i.p., 44 mA) was 30.02 mg/kg b.w. The “ED50 (Frings mice, 0.25 h)” value ([5]; Frings mice) was 5.39 mg/kg b.w, the “activity in electric kindling (rats, hippocampus)” value ([6]; 0.25 h after administration of 60 mg/kg b.w.) was “reveals activity” and the “ED50 (kindling, rats, hippocampus, 0.25 h)” value [6] was over 30 mg/kg b.w. The “ED50 (BIC, 0.25 h)” value [7] was over 75 mg/kg b.w, the “ED50 (PIC, 0.25 h)” value [8] was over 75 mg/kg b.w and the “average time until the first twitch” value ([9]; dose 5 mg/kg b.w.) was 27.3 ± 0.2 min. For the same compound, the “average time from administration until the first clonus” value ([9]; dose 5 mg/kg b.w.) was 33.6 (±1.23) min, the “average time until the first twitch” value ([9]; dose 30 mg/kg b.w.) was 27.6 (±0.3) min and the “average time from administration until the first clonus” value ([9]; dose 30 mg/kg b.w.) was 32.70 (±1.28). The “formalin test result (FIG. 3)” value ([10]; mice) was “inhibiting neuropathic pain (first 10 min. phase) and inflammatory pain (next 30 min. phase)” and the “effect on voltage-gated sodium channels” value [11] was “blocks voltage-gated sodium channels dependently on the voltage”.
With `CCC(CO)NCCOc1c(C)cccc1Cl` (centres unmarked) [Compound 26, R,S-2N-[(2-chlor-6-methylphenoxy)ethyl]amino-1-butanol] the “MES, No. of protected animals/No. of used animals” value ([1]; mice, dose 10 mg/kg b.w., time 0.5 h) was 2/4, the “MES, No. of protected animals/No. of used animals” value [1, 16] was 1/1 and the “MES, No. of protected animals/No. of used animals” value [1, 17] was 1/1. The “ED50 (MES, mice, i.p., 0.25 h)” value ([1]; mice, i.p., 0.25 h) was 21.44 mg/kg b.w, the “ED50 (MES, rats, i.p., 0.25 h)” value [2] was 7.3 mg/kg b.w and the “ED50 (MES, rats, p.o., 0.25 h)” value [2] was 67.69 mg/kg b.w. The “TOX, No. of animals exhibiting motor impairment/no. of used animals” value [3, 14] was 8/8, the “TOX, No. of animals exhibiting motor impairment/no. of used animals” value [3, 15] was 4/4 and the “ED50 (sound induced seizures, mice, 0.25 h)” value ([5]; mice) was 6.05 mg/kg b.w. The “ED50 (BIC, 0.25 h)” value [7] was over 70 mg/kg b.w, the “ED50 (PIC, 0.25 h)” value [8] was over 70 mg/kg b.w and the “neuropathic pain inhibition (formalin test)” value ([10]; 21 mg/kg b.w.) was 36%. The “acute phase of the formalin test” value ([10]; mice, i.p., 21 mg/kg b.w., first ca. 10 min. after formalin, p<0.01) was 64 % of control, the “inflammatory phase of the formalin test” value ([10]; mice, i.p., 21 mg/kg b.w., not statistically significant) was 72 % of control and the “effective dose (LTG-resistant amygdala seizures)” value [12] was 15 mg/kg b.w.
With `CC[C@H](CO)NCCOc1c(C)cccc1Cl` [Compound 27, R-(−)-2N-[(2-chlor-6-methylphenoxy)ethyl]amino-1-butanol] the “MES, No. of protected animals/No. of used animals” value [1, 16] was 1/1, the “MES, No. of protected animals/No. of used animals” value [1, 17] was 1/1 and the “TOX, No. of animals exhibiting motor impairment/no. of used animals” value [3, 14] was 8/8. For the same compound, the “TOX, No. of animals exhibiting motor impairment/no. of used animals” value [3, 15] was 4/4, the “Average weight loss ± S.E.M.” value [13] was 8.3 ± 7.1 and the “protection in status epilepticus prevention” value [13] was 2 rats out of 8. For the same compound, the Protection [13] was 2/8.
In the case of `CC[C@@H](CO)NCCOc1c(C)cccc1Cl` [Compound 28, S-(+)-2N-[(2-chlor-6-methylphenoxy)ethyl]amino-1-butanol], the “MES, No. of protected animals/No. of used animals” value [1, 16] is reported as 1/1, the “MES, No. of protected animals/No. of used animals” value [1, 17] is reported as 1/1 and the “TOX, No. of animals exhibiting motor impairment/no. of used animals” value [3, 14] is reported as 8/8. The “TOX, No. of animals exhibiting motor impairment/no. of used animals” value [3, 15] was 4/4, the “ED50 (kindling, rats, hippocampus, 0.25 h)” value [6] was 15.81 mg/kg b.w and the “Average weight loss ± S.E.M.” value [13] was 3.8 ± 5.7. The “protection in status epilepticus prevention” value [13] was 3 rats out of 8 and the Protection [13] was 3/8.
